{"source": "patent US10774051B2", "about": "“6-membered heterocyclic derivatives and pharmaceutical composition comprising the same” (Shionogi & Co., Ltd., priority 2015, dated 2020)", "data": [{"biological_target": "human P2X7 receptor (Homo sapiens, UniProt Q99572, R270H/Y155H)", "test": "Evaluation of human P2X7 receptor inhibitory activity (Yo-Pro uptake, BzATP stimulation, FLIPR TETRA)", "format": "cell-based", "conditions": "1321N1 cells stably expressing human P2X7 receptor; BzATP stimulation, Yo-Pro uptake; read-out: IC50 (antagonistic activity for the human P2X7 receptor)", "protocol": "(§1) Stably expressing cell line (1321N1 cell transfected with the human P2X7 receptor gene (GenBank accession number NM_002562.5 including T606C and G952A SNP)) was used. The cells were seeded in a 384-well microtiter plate at a concentration of 8000 cells/well and cultured in the medium (10% fetal bovine serum, 25 mM HEPES, 1% penicillin and streptomycin in DMEM) for one day at 37° C. under 5% carbon dioxide atmosphere. After replacing with 20 μL of the HBSS buffer (20 mM HEPES, 55.6 mM D-glucose, 1×HBSS(−), pH7.4-7.5), 15 μL of 17.3 μM Yo-Pro solution in the HBSS buffer was added. The plate was placed in high-throughput cellular screening system FLIPR TETRA (Molecullar Devices, LLC.) and 15 μL of 130 μM BzATP solution in the HBSS buffer was added. Measurement of fluorescence intensity by FLIPR TETRA was started. After eight minutes, 15 μL of DMSO solutions containing different concentrations of the compound of the present invention as prepared by dilution with the HBSS buffer were dispensed to each well through the built-in automatic dispenser, and the measurement of fluorescence intensity was continued for 20 minutes. […] Changing values of fluorescence intensity by the compound of the present invention were calculated by difference between maximum and minimum fluorescence intensity for 20 minutes. Inhibition ratios (%) were calculated from the following equation:\n(§2) [formula] IC50 was calculated using logistic approximation.", "units": {"IC50": "nM"}, "values": [{"smiles": "COc1cn(Cc2ccc(C(F)(F)F)cc2)c(Nc2cccc(Cl)c2C)nc1=O", "note": "[Compound I-0297]", "IC50": 250}, {"smiles": "COc1cn(Cc2ccccc2)c(NCc2cccc(Cl)c2C)nc1=O", "note": "[Compound I-0121]", "IC50": 280}, {"smiles": "Cc1c(Cl)cccc1Nc1nc(=O)c(C#N)cn1Cc1ccccc1", "note": "[Compound I-0013]", "IC50": 39}, {"smiles": "COc1cn(Cc2cc(F)c(F)c(F)c2)c(Nc2cc3sc(C)nc3cc2C)nc1=O", "note": "[Compound I-0940]", "IC50": 240}, {"smiles": "COc1cn(Cc2cc(F)cc(Cl)c2)c(Nc2cc(Cl)cc3[nH]ccc23)nc1=O", "note": "[Compound I-0821]", "IC50": 5}]}, {"biological_target": "human P2X7 receptor (Homo sapiens, UniProt Q99572, R270H/Y155H)", "test": "Evaluation of human P2X7 receptor inhibitory activity (Yo-Pro uptake, BzATP stimulation, FLIPR TETRA)", "format": "cell-based", "conditions": "1321N1 cells stably expressing human P2X7 receptor; BzATP stimulation, Yo-Pro uptake; read-out: IC50 (antagonistic activity for the human P2X7 receptor), class symbol", "protocol": "as §1, §2", "units": {"IC50": "nM"}, "values": [{"smiles": "COc1cc(C)c(Nc2nc(=O)c(F)cn2Cc2ccc(F)cc2)cc1C", "note": "[Compound I-0319]", "IC50": "< 10"}, {"smiles": "COc1cn(Cc2ccccc2)c(Nc2ccc(N3CCOCC3)cc2C)nc1=O", "note": "[Compound I-0204]", "IC50": "100 to 500"}, {"smiles": "COc1ccc(Nc2nc(=O)c(OC)cn2Cc2ccccc2)c(C)c1C", "note": "[Compound I-0499]", "IC50": "10 to 100"}, {"smiles": "Cc1c(Cl)cccc1Nc1nc(=O)c(OCC(F)(F)F)cn1Cc1ccccc1", "note": "[Compound I-0016]", "IC50": "10 to 100"}, {"smiles": "COc1cn(CCCc2ccccc2)c(Nc2cccc(Cl)c2C)nc1=O", "note": "[Compound I-0099]", "IC50": "100 to 500"}, {"smiles": "CCc1c(Nc2nc(=O)c(F)cn2Cc2ccc(F)c(Cl)c2)cc(OC)cc1OC", "note": "[Compound I-0316]", "IC50": "< 10"}, {"smiles": "COc1cn(Cc2ccccc2)c(Nc2cc(Cl)c(Cl)cc2C)nc1=O", "note": "[Compound I-0423]", "IC50": "10 to 100"}, {"smiles": "COc1cn(Cc2cc(F)cc(F)c2)c(Nc2ccc(OC(F)F)cc2C)nc1=O", "note": "[Compound I-0539]", "IC50": "10 to 100"}, {"smiles": "Cc1cc2c(cc1Nc1nc(=O)c(F)cn1Cc1ccc(F)c(Cl)c1)OCCO2", "note": "[Compound I-0369]", "IC50": "< 10"}, {"smiles": "COc1cn(Cc2ccc(F)c(Cl)c2)c(Nc2cccc(C(F)(F)F)c2C)nc1=O", "note": "[Compound I-0468]", "IC50": "10 to 100"}, {"smiles": "COc1cn(Cc2ccc(Cl)c(F)c2)c(Nc2cccc(Cl)c2C)nc1=O", "note": "[Compound I-0280]", "IC50": "10 to 100"}, {"smiles": "COc1cn(Cc2ccccc2OC(F)F)c(Nc2cccc(Cl)c2C)nc1=O", "note": "[Compound I-0474]", "IC50": "< 10"}, {"smiles": "COc1cn(Cc2cc(F)cc(F)c2)c(Nc2cccc(C)c2C)nc1=O", "note": "[Compound I-0326]", "IC50": "< 10"}, {"smiles": "COc1cc(F)cc(Cn2cc(OC)c(=O)nc2Nc2cccc(Cl)c2C)c1", "note": "[Compound I-0427]", "IC50": "100 to 500"}, {"smiles": "COc1cn(Cc2ccccc2)c(Nc2cc(Cl)ccc2Cl)nc1=O", "note": "[Compound I-0080]", "IC50": "100 to 500"}]}, {"biological_target": "human P2X7 receptor (Homo sapiens, UniProt Q99572, R270H/Y155H)", "test": "Evaluation of human P2X7 receptor inhibitory activity (Yo-Pro uptake, BzATP stimulation, FLIPR TETRA)", "format": "cell-based", "conditions": "antagonistic activity for the human P2X7 receptor; read-out: IC50", "protocol": "as §1, §2", "units": {"IC50": "nM"}, "values": [{"smiles": "Cc1cc(OC(F)F)c(C)cc1Nc1nc(=O)c(F)cn1Cc1ccc(F)c(Cl)c1", "note": "[Compound I-0834]", "IC50": "< 10"}, {"smiles": "CCc1ccc(Cl)cc1Nc1nc(=O)c(F)cn1Cc1cc(F)c(F)c(F)c1", "note": "[Compound I-1190]", "IC50": "< 10"}, {"smiles": "Cc1cc(Nc2nc(=O)c(F)cn2Cc2cc(F)c(F)c(F)c2)c(C)cc1F", "note": "[Compound I-1227]", "IC50": "< 10"}, {"smiles": "COc1ccc(C)c(Nc2nc(=O)c(CO)nn2Cc2cc(F)c(F)c(F)c2)c1", "note": "[Compound I-1246]", "IC50": "< 10"}, {"smiles": "COCc1cn(Cc2cc(F)c(F)c(F)c2)c(Nc2cc3sc(C)nc3cc2C)nc1=O", "note": "[Compound I-1141]", "IC50": "10 to 100"}, {"smiles": "COc1cn(Cc2cc(F)cc(F)c2)c(Nc2cc3c(cc2C)OCCO3)nc1=O", "note": "[Compound I-0709]", "IC50": "< 10"}, {"smiles": "CCOc1cc(Nc2nc(=O)c(OC)cn2Cc2cc(F)c(F)c(F)c2)c(C)cc1F", "note": "[Compound I-0921]", "IC50": "< 10"}, {"smiles": "COc1cn(Cc2cc(F)cc(Cl)c2)c(Nc2cc(-c3nnco3)ccc2C)nc1=O", "note": "[Compound I-0667]", "IC50": "10 to 100"}, {"smiles": "Cc1ccc(-c2cccn(C)c2=O)cc1Nc1nc(=O)c(F)cn1Cc1cc(F)c(F)c(F)c1", "note": "[Compound I-1221]", "IC50": "< 10"}, {"smiles": "O=c1nc(Nc2cccc3c(O)cccc23)n(Cc2ccc(F)c(F)c2)cc1F", "note": "[Compound I-1115]", "IC50": "< 10"}, {"smiles": "Cc1nc2[nH]ccc2cc1Nc1nc(=O)c(F)cn1Cc1ccc(F)c(F)c1", "note": "[Compound I-1090]", "IC50": "10 to 100"}, {"smiles": "COCc1cn(Cc2cc(F)c(F)c(F)c2)c(Nc2cc(Cl)c(OC)cc2C)nc1=O", "note": "[Compound I-1146]", "IC50": "10 to 100"}, {"smiles": "Cc1ccc(-c2ncco2)cc1Nc1nc(=O)c(Cl)cn1Cc1cc(F)cc(F)c1", "note": "[Compound I-0854]", "IC50": "< 10"}]}]}
